Data set [1] deals with human pluripotent stem cells. The data set is described as follows: In vitro differentiation of human pluripotent stem cells into cardiomyocytes: yield and progress of differentiation. In kind it is cell-based. The settings on record: in combination with XAV-939, relative to IWP-L6. As to the method: IGF may be added during any stage of the method of differentiating the human pluripotent stem cell population. IGF may, for example, be provided to the human pluripotent stem cell population immediately after plating or passaging the cells (i.e. after transferring of a small number of cells into a new vessel for cultivating) and before, for example, step a) is performed (the contacting of the cells with at least the Wnt-signaling agonist), or before step b) is performed (the contacting of the cells with XAV-939 and IWP-L6 and/or C-59). […]
For differentiation, cells were seeded in 12-well plates at density of 60,000 cells per well or a split ratio that was empirically determined to give 30-80% confluence after 4 days. […]
Cell numbers were determined with a Fuchs-Rosenthal counting chamber. […] Cells were counted and number of cells was determined using following equations: cells/ml=average count per square×dilution factor×5000 total cells=cells/ml×total original volume of cell suspension from which sample was taken. […] GFP fluorescence reports the expression of the endogenous NKX2.5 gene and enables identification/quantification of hPSC-derived cardiomyocytes during differentiation. Method of Measuring TNNT2 (Using FACS) The percentage TNNT2 expressing cells was measured by flow cytometric analysis. […]

The test system of the next data set is dishevelled 2 (Dvl2). The settings on record: HEK293 cells; cited from earlier work.
The test system of a further data set is hIPSC lines. The data set is described as follows: Percentage of cardiomyocytes by flow cytometry for Troponin-T (TNNT-2) at day 14. The settings on record: for differentiation efficiency (TNNT-2 positive cells): FIG. 5, day 14. The format is cell-based, human. The procedure:
For differentiation, cells were seeded in 12-well plates at density of 60,000 cells per well or a split ratio that was empirically determined to give 30-80% confluence after 4 days. Culture media was […] days with a differentiation media as disclosed herein, for example containing 46.5% IMDM (Gibco 21056), 0.25% Bovostar BSA, 46.5% Ham's F12 with Glutamax, 2 mM Glutamax, 450 nM […], 0.05 mg/ml ascorbic acid, 0.5% 5000 U/ml Pen/Strep (Gibco 12070), 0.01% 1000* Trace elements mix B (Cellgro 99-176-CL), 0.1% 1000* Trace elements mix C (Cellgro 99-176-CL). In several experiments 0.1% ITS-x was used from day 4-14, i.e. during differentiation of the cells. Cell numbers were determined with a Fuchs-Rosenthal counting chamber. Briefly, cells grown in monolayer cultures were detach from surface of plate using TrypLETM Select Enzyme (Life Technologies). A uniform cell suspension was transferred to the edge of hemocytometer counting chamber. Cells were counted and number of cells was determined using following equations: cells/ml=average count per square×dilution factor×5000 total cells=cells/ml×total original volume of cell suspension from which sample was taken. Method of Measuring NKX2.5 NKX-GFP reporter hESC and iPSC cells have been described previously. These cells express the fluorescent protein GFP under the control of the endogenous NKX2-5 promoter. GFP+ve cells mark cardiomyocytes (Elliott D A et al. Nat. Methods, 8 (2011), pp. 1037-1040; van den Berg C W et al., Development. 2015 Jul. 24. pii: dev.123810. [Epub ahead of print]). NKX 2.5 is transcription factor essential for heart development and it is expressed in the heart throughout life. GFP fluorescence reports the expression of the endogenous NKX2.5 gene and enables identification/quantification of hPSC-derived cardiomyocytes during differentiation. Method of Measuring TNNT2 (Using FACS) The percentage TNNT2 expressing cells was measured by flow cytometric analysis. Briefly, cells were dissociated with TrypLETM Select Enzyme (Life Technologies), washed with PBS, fixed and permeabilized with FIX & PERM® Cell Fixation and Permeabilization Kit (Life Technologies). Samples were incubated with Troponin T (TNNT2), Cardiac Isoform Ab-1, Mouse Monoclonal Antibody (ThermoFisher, MS-295-P1; at 1:1000 dilution) followed by incubation with secondary antibody Donkey Anti-mouse APC (Jackson Immuno, 715-136-151; at 1:500 dilution) both diluted in Fix&Perm Medium B. Samples were analyzed on a NovocyteTM Flow Cytometer (ACEA Bioscicences) or a MACSQuant VYB instrument (Miltenyi Biotech). […] Two […] cultured on feeders in KOSR (InvitroGen)/FGF supplemented DMEM-F12. To start differentiation, cells were dissociated using Accutase and resuspended in mTesR at a concentration of 60,000/ml cells, the cell suspension was seeded onto Matrigel coated 12-well plates. Cells were maintained for 4 days before onset of differentiation. Cells were treated for 2 days with 5 microMolar CHIR99021, followed by 2 days culture in the presence of specific Wnt inhibiting small molecules, next the cells were cultured for 10 days in differentiation medium. Percentage of cardiomyocytes (FIG. 4A; % TNNT2 positive cells at day 14) was determined at day 14 of differentiation using flow cytometry for the pan-cardiac marker Troponin-T (TNNT-2). […] Presence and absence or concentration have no significant effect on the total number of cells (FIG. 4B; cell count at day 14, in million cells/well). […]
(Flow cytometry measures light scatter and fluorescence of single cells or particles in a stream.)

In data set [2] the test system is NKX2-5-GFP reporter stem cells. Put plainly: Percentage of cardiomyocytes by flow cytometry of GFP positive cells at day 14. In kind it is cell-based, human. The settings on record: FIG. 3, reduction of IWP-L6 from 2 microMolar to 0.25 microMolar. The procedure:
For differentiation, cells were seeded in 12-well plates at density of 60,000 cells per well or a split ratio that was empirically determined to give 30-80% confluence after 4 days. Culture media was […] days with a differentiation media as disclosed herein, for example containing 46.5% IMDM (Gibco 21056), 0.25% Bovostar BSA, 46.5% Ham's F12 with Glutamax, 2 mM Glutamax, 450 nM […], 0.05 mg/ml ascorbic acid, 0.5% 5000 U/ml Pen/Strep (Gibco 12070), 0.01% 1000* Trace elements mix B (Cellgro 99-176-CL), 0.1% 1000* Trace elements mix C (Cellgro 99-176-CL). In several experiments 0.1% ITS-x was used from day 4-14, i.e. during differentiation of the cells. Cell numbers were determined with a Fuchs-Rosenthal counting chamber. […] Cells were counted and number of cells was determined using following equations: cells/ml=average count per square×dilution factor×5000 total cells=cells/ml×total original volume of cell suspension from which sample was taken. […] GFP fluorescence reports the expression of the endogenous NKX2.5 gene and enables identification/quantification of hPSC-derived cardiomyocytes during differentiation. Method of Measuring TNNT2 (Using FACS) The percentage TNNT2 expressing cells was measured by flow cytometric analysis. […] Percentage of cardiomyocytes was determined at day 14 of differentiation using flow cytometry for detection/quantification of GFP positive cells. […]

With `Cc1cc(-c2ccc(CC(=O)Nc3ccc(-c4cccnc4)cc3)cc2)ccn1` [C59, 2-[4-(2-methylpyridin-4-yl)phenyl]-N-(4-pyridin-3-ylphenyl)acetamide], the “toxicity to the human pluripotent stem cells” value in data set [1] is given as “more toxic”. In data set [1] (data not shown), the “yield of cell obtained with the method” value is reported as “reduced yield”.
On to `O=C(CSc1nc2c(c(=O)n1-c1ccccc1)SCC2)Nc1ccc(-c2ccccc2)cn1` [IWP-L6, 2-[(4-oxo-3-phenyl-6,7-dihydrothieno[3,2-d]pyrimidin-2-yl)sulfanyl]-N-(5-phenylpyridin-2-yl)acetamide], for which the “phosphorylation of dishevelled 2 (Dvl2)” value in the data set with dishevelled 2 (Dvl2) is “suppress phosphorylation of dishevelled 2 (Dvl2)”. The “differentiation (% TNNT2 positive cells at day 14)” value with hIPSC lines (FIG. 4A, addition of IWP-L6 at 0.25 microMolar to XAV939) is given as “further improves the differentiation”. For the same compound, in the data set on hIPSC lines (alone), the “differentiation efficiency (TNNT-2 positive cells)” value is recorded as “about 70%”. For the same compound, the “differentiation efficiency (GFP positive cells)” value in data set [2] is listed as “increases the differentiation efficiency even further”.
Turning to `O=c1[nH]c(-c2ccc(C(F)(F)F)cc2)nc2c1CSCC2` [XAV-939, 3,5,7,8-Tetrahydro-2-[4-(trifluoromethyl)phenyl]-4H-thiopyrano[4,3-d]pyrimidin-4-one], the “differentiation efficiency (% TNNT2 positive cells at day 14)” value in the data set on hIPSC lines (FIG. 4A, further increase of concentration above 5 microMolar) is given as “reduces differentiation efficiency”. In the data set on hIPSC lines (FIG. 4A, titration of XAV-939, two hIPSC lines), the “optimal concentration (% TNNT2 positive cells at day 14)” value is reported as 5 microMolar. In the data set on hIPSC lines (addition of XAV939 to IWP-L6), the “differentiation efficiency (TNNT-2 positive cells)” value is reported as “further increased”.

These data come from patent US11136551B2, “In vitro method of differentiating a human pluripotent stem cell population into a cardiomyocyte cell population” (Ncardia B.V., priority 2015, dated 2021).
